Measured values from patent publication US6172205A, “Synthetic process toward total synthesis of eleutherobin and its analogues and uses thereof” (The Trustees of Columbia in the City of New York, priority 1998, dated 2001).
Entries after “also recorded” stand apart in the source; their conditions may differ.

Legend:
[1] = tested on: Human non-small cell lung carcinoma cells, A549; experiment: Cytotoxicity by counting cells after 72 h, Taxol-sensitive cells; format: cell-based; conditions: for IC50: Homo sapiens, A549, 72 h; for cytotoxicity (in words): sensitive cell lines (A549, SKOV3)
Procedure: Taxol-resistant and sensitive cell lines were seeded into 12-well plates at a density of 5×10^4 cells per well and allowed a period of 12 h for attachment prior to treatment. […] Cells were then trypsinized and counted (Coulter counter model ZF0031, Coulter Corp., Miami, Fla.).

[2] = tested on: A549-T12 (Taxol-resistant A549); experiment: Cytotoxicity by counting cells after 72 h, Taxol-resistant cells; format: cell-based, human
Procedure: (§1) Human non-small cell lung carcinoma cells, A549, were maintained in RPMI 1640 containing 10% fetal bovine serum and 1% penicillin-streptomycin (Gibco Laboratories, Grand Island N.Y.) at 37° C. in 7% CO2. The Taxol-resistant cell line A549-T12 was selected for resistance to Taxol and maintained in a final concentration of 12 nM drug (21). Human ovarian carcinoma cells SKOV3 and the MDR variant SKVBL (obtained from Dr. V. Ling) were maintained in α-mem plus ribonucleotides, deoxynucleotides, 15% fetal bovine serum and 1% penicillin-streptomycin (Gibco Laboratories) at 37° C. in 5% CO2. SKVBL cells were maintained in […] vinblastine (Sigma Chemical Co.).
(§2) Taxol-resistant and sensitive cell lines were seeded into 12-well plates at a density of 5×10^4 cells per well and allowed a period of 12 h for attachment prior to treatment. Cells were exposed to 10-fold serial dilutions of each compound (10^-10 to 10^-6 M) for 72 h. Cells were then trypsinized and counted (Coulter counter model ZF0031, Coulter Corp., Miami, Fla.). The IC50 was determined by plotting cell number against log of the drug concentration and this was used to determine the concentration of compound resulting in 50% growth inhibition compared to untreated cells. Each cell line was assayed in a minimum of 3 independent experiments with each compound and the results expressed as the mean IC50.
(§3) The cytotoxic efficacy of eleutherobin and its derivatives (FIG. 6) was evaluated in two drug sensitive human cancer cell lines and their Taxol-resistant counterparts. The results are summarized in Table I in order of decreasing potency. […] The Taxol-resistant cell line SKVBL overexpresses high levels of P-glycoprotein (22). […] The only difference between the two agents is the enantiomeric relationship in the carbohydrate (2'-acetylarabinose) sector (FIG. 6). […] This cell line expressed high levels of MDR1 resulting in Taxol-resistance equal or greater than 1666 -fold compared to the Taxol-sensitive SKOV3 cell line.
(§4) ^a Cytotoxicity determined by counting cells after 72 h drug exposure.

[3] = tested on: Human ovarian carcinoma cells SKOV3; experiment: Cytotoxicity by counting cells after 72 h, Taxol-sensitive cells; format: cell-based; conditions: SK-OV-3, 72 h
Procedure: as §1, §2, §4

[4] = tested on: SKVBL (MDR variant of SKOV3); experiment: Cytotoxicity by counting cells after 72 h, MDR variant cells; format: cell-based, human
Procedure: as §1, §2, §3, §4

[5] = tested on: tubulin / microtubule protein; experiment: Tubulin polymerization by turbidity at 350 nm in the absence of GTP; format: biochemical, calf; conditions: 10 μM, relative to eleutherobin
Procedure: Eleutherobin and its derivatives were synthesized as described (18,19). Taxol was obtained from the Drug Development Branch, National Cancer Institute (Bethesda, Md.). All compounds were dissolved in dimethyl sulfoxide (Sigma Chemical Co., St. Louis, Mo.) at stock concentrations of 5 mM and stored at -20° C. All control samples contained an equal volume of DMSO. GTP was obtained from Sigma Chemical Co. And dissolved in sterile distilled water at a concentration of 10 mM and stored at -20° C. Microtubule protein was purified from calf brains by two cycles of temperature-dependent assembly and disassembly (20) and stored in liquid nitrogen prior to use. The anti-mouse β-tubulin monoclonal antibody T-4026 was obtained from Sigma Chemical Co.
The ability of each compound to polymerize tubulin was evaluated by recording the change in turbidity of microtubule protein at 350 nm for 80 min in a spectrophotometer (UVIKON, Research Instruments Int., SD, Calif.). One mg of purified microtubule protein was diluted in assembly buffer containing 0.1 M MES, 1 mM EGTA, 0.5 mM MgCl2 and 3 M glycerol, pH 6.6. All compounds were evaluated at a concentration of 10 μM at 37° C. […] Microtubule stability was assessed by the addition of 10 mM Ca^++. changes from t=0-10 min were used to calculate initial slopes from the linear portion of each curve. These values were used to calculate the activity of each compound (relative to the activity of Taxol which was assigned a value of 100%).
The polymerization activity of these compounds was also assessed by determining the slope of the linear portion of each curve at A350 nm (t=0-10 min), and expressing this relative to Taxol (which was assigned a value of 100% (FIG. 8). The order of activity of eleutherobin and derivatives using this method, corroborates the results obtained from cytotoxicity studies.

[6] = tested on: cellular microtubules, NIH 3T3 cells; experiment: Microtubule bundle formation by immunofluorescence; format: cell-based; conditions: 2 μM, 5.5 h, 37 °C
Procedure: FIG. 9 immunofluorescence images NIH3T3 cells labeled with β-tubulin antibody following exposure to different drugs. A)DMSO; B)2 μM Taxol; C)2 μM eleutherobin; D)2 μM neo-eleutherobin; E)2 μM SKBII.294; F)2 μM SKBIII.13.
Illustrates the effects of eleutherobin and its derivatives on the morphology of cellular microtubules following exposure of cells to 2 μM of each compound for 5.5 h at 37° C. […] The number of micotic asters correlated with the extent of microtubule bundling in interphase cells.
(§5) NIH 3T3 cells were grown to subconfluency on glass converslips in 35 mm plastic petri dishes. Cells were exposed to 2 μM of Taxol and each of the experimental compounds for 5.5 h at 37° C., rinsed twice in PBS and extracted with 0.5% Triton-X-100 in microtubule stabilizing buffer (PEM) (100 mM PIPES, 2 mM EGTA and 2 mM MgCl2, pH 6.8) for 4 min. Following a wash in PEM, the cells were fixed for 40 min at room temperature in 3% formaldehyde in PEM followed by incubation in 0.1 M glycine in PBS for 10 min and washing (four times) in PEM containing 5 μM EGTA. Following blocking in 20% normal goat serum (NGS) for 30 min at room temperature, cells were incubated for 1 h at 37° C. with a 1:100 dilution of β-tubulin mAb diluted in 10% NGS, washed twice in 1% BSA, once in PBS and three times in 1% BSA. Cells were then incubated in a 1:200 dilution of the secondary fluorophore antibody, IndocarbocyanineCY3 (Jackson Immunoresearch Laboratories Inc., Pa.) in 20% NGS for 20 min at room temperature. Finally cells were washed three times in 1% BSA and the dried slides mounted in 30% glycerol in PBS containing […]-phenylene diamine (1 mg/ml). Fixed slides were examined using a Zeiss Axioskop microscope.

[7] = Solubility compared to eleutherobin; format: physicochemical
[8] = tested on: P-glycoprotein; experiment: P-glycoprotein substrate behaviour inferred from resistance of SKVBL cells; format: cell-based, human
Procedure: as §1, §2, §3

[9] = SKBII.294 and 298 structures compared; cited from earlier work
[10] = Overall biological activity, all parameters tested
Procedure: as §2
The ability of each compound to polymerize tubulin was evaluated by recording the change in turbidity of microtubule protein at 350 nm for 80 min in a spectrophotometer (UVIKON, Research Instruments Int., SD, Calif.). One mg of purified microtubule protein was diluted in assembly buffer containing 0.1 M MES, 1 mM EGTA, 0.5 mM MgCl2 and 3 M glycerol, pH 6.6. All compounds were evaluated at a concentration of 10 μM at 37° C. GTP was used at a final concentration of 1 mM. Microtubule stability was assessed by the addition of 10 mM Ca^++. changes from t=0-10 min were used to calculate initial slopes from the linear portion of each curve. These values were used to calculate the activity of each compound (relative to the activity of Taxol which was assigned a value of 100%).
as §5

| Structure (SMILES) | IC50 [1] | cytotoxicity (in words) [1] | fold resistance relative to the parental cell line ([2]; A549-T12 vs A549, 4320 min) | IC50 ([2]; Homo sapiens, Lung Carcinoma A549, Resistant (A549-T12), 72 h, mean of at least three independent experiments) | IC50 [3] | IC50 ([4]; Homo sapiens, SK-OV-3, Ovarian Carcinoma SKOV3, Resistant (SKVBL), 72 h, mean of at least three independent experiments) | cross-resistance in SKVBL (in words) ([4]; MDR1 expressing cells, high P-glycoprotein) | fold resistance relative to the parental cell line ([4]; SKVBL vs SKOV3) | microtubule polymerization activity relative to eleutherobin [5] | microtubule bundle formation (in words) [6] | solubility (in words) [7] | P-glycoprotein substrate (in words) [8] | activity reported for compounds with the same structures (in words) [9] | biological activity (in words) [10] |
| --- | --- | --- | --- | --- | --- | --- | --- | --- | --- | --- | --- | --- | --- | --- |
| CO[C@]12C=C[C@](C)(O1)[C@@H](OC(=O)/C=C/c1cn(C)cn1)C[C@H]1C(C)=CC[C@H](C(C)C)[C@H]1C=C2COC(C)=O [SKBII.294] | 152 nM | less cytotoxic than either eleutherobin or neo-eleutherobin; also recorded: more cytotoxic than to SKBII.296 | 1.1 fold | 162 nM | 307 nM | 1040 nM | essentially not cross-resistant | 3.4 fold | 54% | reduced bundle formation in cultured cells; also recorded: induced less bundle formation than neo-eleutherobin | reduced solubility compared to eleutherobin | considerably less attractive for P-glycoprotein compared to eleutherobin and neo-eleutherobin | equal activity | – |
| CO[C@]12C=C[C@](C)(O1)[C@@H](OC(=O)/C=C/c1cn(C)cn1)C[C@H]1C(C)=CC[C@H](C(C)C)[C@H]1C=C2CO [SKBII.298] | 1060 nM | considerably less cytotoxic (in the μM range) | – | – | > 5000 nM | – | – | – | 36% | induced less bundle formation than neo-eleutherobin | reduced solubility compared to eleutherobin | – | equal activity | the least active compound in this sub-group |
